Source: ChEMBL document CHEMBL1152566, “Synthesis and activity of azaterphenyl diamidines against Trypanosoma brucei rhodesiense and Plasmodium falciparum” (Bioorg Med Chem, 2009)
Active and inactive are the calls of the source. No cut-off for these calls is given here.

Columns and labels:
[1] = tested on: Trypanosoma brucei rhodesiense; experiment: Antitrypanosomal activity against Trypanosoma brucei rhodesiense STIB900 infected in NMRI mouse assessed as survival days at 5 mg/kg, ip; assay type: functional; conditions: route intraperitoneal
Plasmodium falciparum = experiment: Antiplasmodial activity against Plasmodium falciparum K1; assay type: functional, organism-based
[2] = tested on: Trypanosoma brucei rhodesiense; experiment: Antitrypanosomal activity against Trypanosoma brucei rhodesiense STIB900; assay type: functional, organism-based
[3] = tested on: Trypanosoma brucei rhodesiense; experiment: Antitrypanosomal activity against Trypanosoma brucei rhodesiense STIB900 infected in NMRI mouse assessed as survival at 5 mg/kg, ip; assay type: functional, organism-based; design: dose 5 mg/kg
[4] = tested on: Trypanosoma brucei rhodesiense; conditions: dose 20 mg/kg; route intraperitoneal
Description: Antitrypanosomal activity against Trypanosoma brucei rhodesiense STIB900 infected in NMRI mouse assessed as survival days at 20 mg/kg, ip

[5] = tested on: Trypanosoma brucei rhodesiense; experiment: Antitrypanosomal activity against Trypanosoma brucei rhodesiense STIB900 infected in NMRI mouse assessed as survival at 20 mg/kg, ip; assay type: functional, organism-based; design: dose 20 mg/kg

Compound	Survival [1]	IC50 (Plasmodium falciparum)	IC50 [2]	Activity [3]	Survival [4]	Activity [5]
N=C(N)c1ccc(-c2ccc(-c3cnc(C(=N)N)nc3)cn2)cc1	>43.25 days	1.5 nM	12 nM	inactive		
N=C(N)c1ccc(-c2ccc(-c3ccc(C(=N)N)nc3)cc2)cc1	>48.75 days			inactive		
N=C(N)c1ccc(-c2cnc(-c3ccc(C(=N)N)cc3)cn2)cc1	36.5 days	0.4 nM	18 nM	inactive		
N=C(N)c1ccc(-c2ccc(-c3cnc(C(=N)N)cn3)cn2)cc1	>31.75 days	5.7 nM				
N=C(N)c1ccc(-c2ccc(-c3ccc(C(=N)N)cc3)o2)cc1 [FURAMIDINE]	>46 days				>57.75 days	
N=C(N)c1ccc(-c2ccc(-c3cnc(C(=N)N)nc3)cc2)cc1	>46.25 days	0.6 nM	4 nM			
N=C(N)c1ccc(-c2ccc(-c3ccc(C(=N)N)cn3)o2)cc1	>54.5 days				>60 days	Active
N=C(N)c1ccc(-c2ccc(-c3ccc(C(=N)N)cn3)cc2)nc1	>60 days	10.1 nM	47 nM			
N=C(N)c1ccc(-c2ccc(-c3ccc(C(=N)N)nc3)cc2)cn1	>51.5 days			inactive		
N=C(N)c1ccc(-c2ccc(-c3ccc(C(=N)N)cn3)cn2)cc1	>60 days	2.5 nM				
N=C(N)c1ccc(-c2ccc(-c3ccc(C(=N)N)cc3)nc2)cc1	>42 days	10 nM	2 nM			
N=C(N)c1ccc(-c2cnc(-c3ccc(C(=N)N)cc3)nc2)cc1	23.5 days			inactive		
N=C(N)c1ccc(-c2ccc(-c3ccc(C(=N)N)cc3)cc2)cc1		1.4 nM	5 nM		>47.75 days	
N=C(N)c1ccc(-c2ccc(-c3ccc(C(=N)N)nc3)cn2)cc1	>60 days	1.1 nM	6 nM			
N=C(N)c1ccc(-c2ccc(-c3ccc(C(=N)N)cc3)nn2)cc1	>49.25 days	1.3 nM	14 nM			
N=C(N)c1ncc(-c2ccc(-c3cnc(C(=N)N)nc3)cc2)cn1	>43.25 days	0.6 nM	6 nM			
N=C(N)c1ccc(-c2ccc(-c3ccc(C(=N)N)cn3)cc2)cc1	>56 days	1.3 nM				
